Measured values taken from the supplement of paper PMC10883282.
Where a name gives a salt, the structure may show the parent alone. ± gives the standard deviation of the averaged measurements.

Test system: HS729
Experiment: relative viability vs DMSO control (72 h) (fraction); higher = more viable cells
In short: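 After seeding at densities set for 80–90% confluence in 384-well plates, sarcoma cell lines waited 24 h before 2.5 µl of serially diluted compound was added. Source plates held 10 mM down to 0.0002 mM. Plates were incubated 72 h at 37 °C with 5% CO2, with 0.1% DMSO vehicle and a 5 µM positive control, and relative viability was taken from ATPLite as percent growth averaged over up to triplicate wells, with 1 set as full and 0 as none.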

| Compound | relative viability (0.00017 µM) | relative viability (0.00051 µM) | relative viability (0.00152 µM) | relative viability (0.00457 µM) | relative viability (0.01372 µM) | relative viability (0.04115 µM) | relative viability (0.1235 µM) | relative viability (0.3704 µM) | relative viability (1.111 µM) | relative viability (3.333 µM) | relative viability (10 µM) |
| --- | --- | --- | --- | --- | --- | --- | --- | --- | --- | --- | --- |
| CC[C@H](Nc1ncnc2[nH]cnc12)c1nc2cccc(F)c2c(=O)n1-c1ccccc1 [Idelalisib] | 1.07 ± 0.061 | 1.07 ± 0.073 | 1.03 ± 0.055 | 1.05 ± 0.023 | 1.01 ± 0.038 | 0.987 ± 0.018 | 0.947 ± 0.049 | 0.919 ± 0.035 | 0.905 ± 0.05 | 0.843 ± 0.036 | 0.704 ± 0.011 |
| COc1cccc2c1C(=O)c1c(O)c3c(c(O)c1C2=O)C[C@@](O)(C(=O)CO)C[C@@H]3O[C@H]1C[C@H](N)[C@H](O)[C@H](C)O1 [Doxorubicin Hydrochloride] | 0.93 ± 0.021 | 0.93 ± 0.047 | 0.949 ± 0.054 | 0.946 ± 0.055 | 0.81 ± 0.029 | 0.6943 ± 0.0048 | 0.525 ± 0.041 | 0.303 ± 0.017 | 0.258 ± 0.0095 | 0.136 ± 0.0072 | 0.118 ± 0.0061 |
| Cc1ccc(NC(=O)c2ccc(CN3CCN(C)CC3)cc2)cc1Nc1nc(-c2cccnc2)cs1 [Masitinib] | 1.06 ± 0.064 | 1.06 ± 0.043 | 0.984 ± 0.066 | 1.03 ± 0.085 | 1.03 ± 0.037 | 1.04 ± 0.063 | 0.969 ± 0.038 | 0.913 ± 0.04 | 0.851 ± 0.054 | 0.576 ± 0.018 | 0.139 ± 0.022 |
| Cn1cnc2c(F)c(Nc3ccc(Br)cc3F)c(C(=O)NOCCO)cc21 [Binimetinib] | 1.07 ± 0.013 | 1.05 ± 0.063 | 1.06 ± 0.12 | 1.01 ± 0.077 | 0.986 ± 0.035 | 0.933 ± 0.052 | 0.898 ± 0.019 | 0.906 ± 0.023 | 0.906 ± 0.046 | 0.856 ± 0.013 | 0.811 ± 0.012 |
| CC(=O)Nc1cccc(-n2c(=O)n(C3CC3)c(=O)c3c(Nc4ccc(I)cc4F)n(C)c(=O)c(C)c32)c1 [Trametinib] | 1.05 ± 0.081 | 0.991 ± 0.036 | 0.918 ± 0.066 | 0.941 ± 0.051 | 0.789 ± 0.021 | 0.766 ± 0.013 | 0.73 ± 0.031 | 0.661 ± 0.018 | 0.638 ± 0.029 | 0.628 ± 0.033 | 0.611 ± 0.031 |
| Cc1cc(Nc2ncnc3ccc(NC4=NC(C)(C)CO4)cc23)ccc1Oc1ccn2ncnc2c1 [Tucatinib] | 1.05 ± 0.04 | 1.05 ± 0.028 | 1.06 ± 0.029 | 0.987 ± 0.06 | 0.974 ± 0.032 | 0.965 ± 0.061 | 0.967 ± 0.015 | 0.963 ± 0.032 | 0.957 ± 0.034 | 0.924 ± 0.071 | 0.909 ± 0.056 |
| CCN1CCN(Cc2ccc(Nc3ncc(F)c(-c4cc(F)c5nc(C)n(C(C)C)c5c4)n3)nc2)CC1 [Abemaciclib] | 0.912 ± 0.041 | 0.923 ± 0.014 | 0.892 ± 0.057 | 0.862 ± 0.033 | 0.9097 ± 0.0087 | 0.865 ± 0.029 | 0.818 ± 0.029 | 0.854 ± 0.087 | 0.873 ± 0.025 | 0.886 ± 0.021 | 0.885 ± 0.011 |
| Cc1nc(-c2cn3c(n2)-c2ccc(-c4cnn(C(C)(C)C(N)=O)c4)cc2OCC3)n(C(C)C)n1 [Taselisib] | 0.913 ± 0.018 | 0.935 ± 0.041 | 0.893 ± 0.045 | 0.891 ± 0.076 | 0.798 ± 0.066 | 0.756 ± 0.062 | 0.644 ± 0.053 | 0.629 ± 0.019 | 0.5241 ± 0.0042 | 0.487 ± 0.013 | 0.429 ± 0.014 |
| C[C@@H]1COCCN1c1cc(-c2ccnn2C)c2ccnc(-c3ccn[nH]3)c2n1 | 0.945 ± 0.068 | 0.894 ± 0.045 | 0.92 ± 0.071 | 0.873 ± 0.041 | 0.849 ± 0.036 | 0.804 ± 0.04 | 0.681 ± 0.019 | 0.634 ± 0.018 | 0.469 ± 0.017 | 0.403 ± 0.033 | 0.373 ± 0.012 |
| CO[C@H]1C[C@@H]2CC[C@@H](C)[C@@](O)(O2)C(=O)C(=O)N2CCCC[C@H]2C(=O)O[C@H]([C@H](C)C[C@@H]2CC[C@@H](OP(C)(C)=O)[C@H](OC)C2)CC(=O)[C@H](C)/C=C(\C)[C@@H](O)[C@@H](OC)C(=O)[C@H](C)C[C@H](C)/C=C/C=C/C=C/1C [Ridaforolimus] | 0.962 ± 0.012 | 1 ± 0.045 | 0.977 ± 0.048 | 0.907 ± 0.1 | 0.923 ± 0.054 | 0.944 ± 0.0096 | 0.916 ± 0.12 | 0.924 ± 0.096 | 0.86 ± 0.14 | 0.786 ± 0.065 | 0.763 ± 0.052 |
| CCc1cc2c(cc1N1CCC(N3CCOCC3)CC1)C(C)(C)c1[nH]c3cc(C#N)ccc3c1C2=O [Alectinib] | 0.923 ± 0.021 | 0.962 ± 0.027 | 0.958 ± 0.035 | 0.938 ± 0.073 | 0.972 ± 0.047 | 0.987 ± 0.021 | 0.937 ± 0.029 | 0.941 ± 0.045 | 1 ± 0.058 | 0.933 ± 0.022 | 1.02 ± 0.024 |
| COCc1c(-c2cc3cc(C)cc(OC)c3s2)c2c(N)ncnn2c1CN1CCNC(=O)C1 [Rogaratinib] | 1.06 ± 0.024 | 0.957 ± 0.068 | 0.967 ± 0.036 | 0.91 ± 0.052 | 0.92 ± 0.11 | 0.882 ± 0.034 | 0.755 ± 0.041 | 0.645 ± 0.037 | 0.582 ± 0.039 | 0.485 ± 0.031 | 0.348 ± 0.024 |
| C[C@@H]1CCN(C(=O)CC#N)C[C@@H]1N(C)c1ncnc2[nH]ccc12 [Tofacitinib] | 1.03 ± 0.017 | 0.957 ± 0.029 | 0.936 ± 0.031 | 0.927 ± 0.036 | 0.889 ± 0.036 | 0.835 ± 0.065 | 0.802 ± 0.029 | 0.828 ± 0.013 | 0.861 ± 0.03 | 0.846 ± 0.02 | 0.75 ± 0.059 |
| O=C(Cc1ccc(-c2ccc(OCCN3CCOCC3)cc2)cn1)NCc1ccccc1 [KX2-391] | 1.09 ± 0.061 | 1.02 ± 0.096 | 0.943 ± 0.046 | 0.959 ± 0.069 | 0.912 ± 0.019 | 0.792 ± 0.064 | 0.623 ± 0.018 | 0.562 ± 0.024 | 0.521 ± 0.029 | 0.501 ± 0.048 | 0.475 ± 0.019 |
| C[C@@H](c1ccc2nccn2c1)n1nnc2ncc(-c3cnn(C)c3)nc21 [Volitinib] | 0.947 ± 0.029 | 0.978 ± 0.013 | 0.978 ± 0.031 | 1.02 ± 0.043 | 0.938 ± 0.021 | 0.952 ± 0.066 | 0.955 ± 0.061 | 1 ± 0.053 | 1 ± 0.08 | 0.97 ± 0.034 | 1.03 ± 0.042 |
| C[C@]1(O)C[C@@H](c2nc(-c3ccc4ccc(-c5ccccc5)nc4c3)c3c(N)nccn32)C1 [Linsitinib] | 1.04 ± 0.051 | 1.02 ± 0.073 | 0.996 ± 0.053 | 0.969 ± 0.026 | 0.921 ± 0.033 | 0.842 ± 0.012 | 0.757 ± 0.047 | 0.655 ± 0.07 | 0.588 ± 0.047 | 0.577 ± 0.055 | 0.465 ± 0.049 |
| COc1cc2c(Oc3ccc4[nH]c(C)cc4c3F)ncnc2cc1OCCCN1CCCC1 [Cediranib] | 0.964 ± 0.077 | 0.991 ± 0.077 | 0.954 ± 0.044 | 0.962 ± 0.086 | 0.991 ± 0.045 | 0.968 ± 0.057 | 0.94 ± 0.059 | 0.8 ± 0.1 | 0.665 ± 0.039 | 0.834 ± 0.024 | 0.83 ± 0.026 |
| CC(C)(C)c1cc(NC(=O)Nc2ccc(-c3cn4c(n3)sc3cc(OCCN5CCOCC5)ccc34)cc2)no1 [Quizartinib] | 1.03 ± 0.1 | 0.973 ± 0.047 | 1 ± 0.11 | 0.976 ± 0.12 | 1.01 ± 0.084 | 0.953 ± 0.062 | 1.01 ± 0.12 | 0.873 ± 0.069 | 0.894 ± 0.12 | 0.873 ± 0.061 | 0.929 ± 0.061 |
| COc1cc2/c(=N/c3ccc(Br)cc3F)nc[nH]c2cc1OCC1CCN(C)CC1 [Vandetanib] | 0.915 ± 0.04 | 0.896 ± 0.083 | 0.899 ± 0.031 | 0.8994 ± 0.0041 | 0.871 ± 0.022 | 0.843 ± 0.047 | 0.857 ± 0.026 | 0.834 ± 0.068 | 0.746 ± 0.055 | 0.663 ± 0.03 | 0.028 ± 0.0075 |
